Data published in US4508663A, “Process for preparing thiosulfenamide derivatives of N-phosphonomethylglycinonitriles” (Monsanto Company, priority 1983, dated 1985).

Experiments:
Assay in all cases: post-emergence herbicidal activity, greenhouse
Format in all cases: in vivo
[1] = system: Barnyardgrass
Outline: (§1)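 Plants grown from seed or perennial propagules in greenhouse soil pans were sprayed at two to three weeks with compound solution or suspension containing about 0.4% emulsifier, at the stated application rates. Injury relative to untreated controls was scored at approximately two and four weeks after treatment on a post-emergence activity index.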

[2] = system: Canada Thistle; conditions: Table I, 4 WAT
Outline: as §1

[3] = system: Cocklebur
Outline: as §1

[4] = system: Crabgrass; conditions: Table II
Outline: as §1

[5] = system: Downy Brome
Outline: as §1

[6] = system: Hemp Sesbania; conditions: Table II
Outline: as §1

[7] = system: Johnsongrass; conditions: Table I, 4 WAT
Outline: as §1

[8] = system: Lambsquarters
Outline: as §1

[9] = system: Morningglory
Outline: as §1

[10] = system: Panicum Spp; conditions: Table II
Outline: as §1

[11] = system: Quackgrass; conditions: Table I, 4 WAT
Outline: as §1

[12] = system: Rice; conditions: Table II
Outline: as §1

[13] = system: Smartweed; conditions: Table I, 4 WAT
Outline: as §1

[14] = system: Sorghum; conditions: Table II
Outline: as §1

[15] = system: Soybean; conditions: Table II
Outline: as §1

[16] = system: Sugar Beet; conditions: Table II
Outline: as §1

[17] = system: Velvetleaf
Outline: as §1

[18] = system: Wheat; conditions: Table II
Outline: as §1

[19] = system: Wild Buckwheat; conditions: Table II
Outline: as §1

[20] = system: Yellow Nutsedge; conditions: Table I, 4 WAT
Outline: as §1

Structure (SMILES): CSSN(CC#N)CP(=O)(Oc1ccccc1)Oc1ccccc1 [VII]
- post-emergence herbicidal activity index ([1]; Table I, 4 WAT, 5.6 kg/h): 2 (50-74% control)
- post-emergence herbicidal activity index ([1]; Table I, 4 WAT, 11.2 kg/h): 3 (75-99% control)
- post-emergence herbicidal activity index ([1]; Table II, 2 WAT, 0.056 kg/h): 0 (0-24% control)
- post-emergence herbicidal activity index ([1]; Table II, 2 WAT, 0.28 kg/h): 0 (0-24% control)
- post-emergence herbicidal activity index ([1]; Table II, 2 WAT, 1.12 kg/h): 1 (25-49% control)
- post-emergence herbicidal activity index ([1]; Table II, 2 WAT, 5.6 kg/h): 3 (75-99% control)
- post-emergence herbicidal activity index ([1]; Table II, 4 WAT, 1.12 kg/h): 1 (25-49% control)
- post-emergence herbicidal activity index ([1]; Table II, 4 WAT, 5.6 kg/h): 3 (75-99% control)
- post-emergence herbicidal activity index ([2]; 5.6 kg/h): 4 (100% control)
- post-emergence herbicidal activity index ([2]; 11.2 kg/h): 4 (100% control)
- post-emergence herbicidal activity index ([3]; Table I, 4 WAT, 5.6 kg/h): 2 (50-74% control)
- post-emergence herbicidal activity index ([3]; Table I, 4 WAT, 11.2 kg/h): 3 (75-99% control)
- post-emergence herbicidal activity index ([3]; Table II, 2 WAT, 0.056 kg/h): 0 (0-24% control)
- post-emergence herbicidal activity index ([3]; Table II, 2 WAT, 0.28 kg/h): 1 (25-49% control)
- post-emergence herbicidal activity index ([3]; Table II, 2 WAT, 1.12 kg/h): 1 (25-49% control)
- post-emergence herbicidal activity index ([3]; Table II, 2 WAT, 5.6 kg/h): 2 (50-74% control)
- post-emergence herbicidal activity index ([3]; Table II, 4 WAT, 1.12 kg/h): 1 (25-49% control)
- post-emergence herbicidal activity index ([3]; Table II, 4 WAT, 5.6 kg/h): 3 (75-99% control)
- post-emergence herbicidal activity index ([4]; 2 WAT, 0.056 kg/h): 0 (0-24% control)
- post-emergence herbicidal activity index ([4]; 2 WAT, 0.28 kg/h): 1 (25-49% control)
- post-emergence herbicidal activity index ([4]; 2 WAT, 1.12 kg/h): 3 (75-99% control)
- post-emergence herbicidal activity index ([4]; 2 WAT, 5.6 kg/h): 4 (100% control)
- post-emergence herbicidal activity index ([4]; 4 WAT, 1.12 kg/h): 3 (75-99% control)
- post-emergence herbicidal activity index ([4]; 4 WAT, 5.6 kg/h): 4 (100% control)
- post-emergence herbicidal activity index ([5]; Table I, 4 WAT, 5.6 kg/h): 3 (75-99% control)
- post-emergence herbicidal activity index ([5]; Table I, 4 WAT, 11.2 kg/h): 2 (50-74% control)
- post-emergence herbicidal activity index ([5]; Table II, 2 WAT, 0.056 kg/h): 0 (0-24% control)
- post-emergence herbicidal activity index ([5]; Table II, 2 WAT, 0.28 kg/h): 0 (0-24% control)
- post-emergence herbicidal activity index ([5]; Table II, 2 WAT, 1.12 kg/h): 1 (25-49% control)
- post-emergence herbicidal activity index ([5]; Table II, 2 WAT, 5.6 kg/h): 1 (25-49% control)
- post-emergence herbicidal activity index ([5]; Table II, 4 WAT, 1.12 kg/h): 0 (0-24% control)
- post-emergence herbicidal activity index ([5]; Table II, 4 WAT, 5.6 kg/h): 1 (25-49% control)
- post-emergence herbicidal activity index ([6]; 2 WAT, 0.056 kg/h): 0 (0-24% control)
- post-emergence herbicidal activity index ([6]; 2 WAT, 0.28 kg/h): 0 (0-24% control)
- post-emergence herbicidal activity index ([6]; 2 WAT, 1.12 kg/h): 0 (0-24% control)
- post-emergence herbicidal activity index ([6]; 2 WAT, 5.6 kg/h): 1 (25-49% control)
- post-emergence herbicidal activity index ([6]; 4 WAT, 1.12 kg/h): 0 (0-24% control)
- post-emergence herbicidal activity index ([6]; 4 WAT, 5.6 kg/h): 1 (25-49% control)
- post-emergence herbicidal activity index ([7]; 5.6 kg/h): 3 (75-99% control)
- post-emergence herbicidal activity index ([7]; 11.2 kg/h): 4 (100% control)
- post-emergence herbicidal activity index ([8]; Table I, 4 WAT, 5.6 kg/h): 3 (75-99% control)
- post-emergence herbicidal activity index ([8]; Table I, 4 WAT, 11.2 kg/h): 4 (100% control)
- post-emergence herbicidal activity index ([8]; Table II, 2 WAT, 0.056 kg/h): 0 (0-24% control)
- post-emergence herbicidal activity index ([8]; Table II, 2 WAT, 0.28 kg/h): 1 (25-49% control)
- post-emergence herbicidal activity index ([8]; Table II, 2 WAT, 1.12 kg/h): 1 (25-49% control)
- post-emergence herbicidal activity index ([8]; Table II, 2 WAT, 5.6 kg/h): 3 (75-99% control)
- post-emergence herbicidal activity index ([8]; Table II, 4 WAT, 1.12 kg/h): 0 (0-24% control)
- post-emergence herbicidal activity index ([8]; Table II, 4 WAT, 5.6 kg/h): 4 (100% control)
- post-emergence herbicidal activity index ([9]; Table I, 4 WAT, 5.6 kg/h): 2 (50-74% control)
- post-emergence herbicidal activity index ([9]; Table I, 4 WAT, 11.2 kg/h): 2 (50-74% control)
- post-emergence herbicidal activity index ([9]; Table II, 2 WAT, 0.056 kg/h): 0 (0-24% control)
- post-emergence herbicidal activity index ([9]; Table II, 2 WAT, 0.28 kg/h): 1 (25-49% control)
- post-emergence herbicidal activity index ([9]; Table II, 2 WAT, 1.12 kg/h): 1 (25-49% control)
- post-emergence herbicidal activity index ([9]; Table II, 2 WAT, 5.6 kg/h): 2 (50-74% control)
- post-emergence herbicidal activity index ([9]; Table II, 4 WAT, 1.12 kg/h): 0 (0-24% control)
- post-emergence herbicidal activity index ([9]; Table II, 4 WAT, 5.6 kg/h): 2 (50-74% control)
- post-emergence herbicidal activity index ([10]; 2 WAT, 0.056 kg/h): 0 (0-24% control)
- post-emergence herbicidal activity index ([10]; 2 WAT, 0.28 kg/h): 0 (0-24% control)
- post-emergence herbicidal activity index ([10]; 2 WAT, 1.12 kg/h): 0 (0-24% control)
- post-emergence herbicidal activity index ([10]; 2 WAT, 5.6 kg/h): 1 (25-49% control)
- post-emergence herbicidal activity index ([10]; 4 WAT, 1.12 kg/h): 0 (0-24% control)
- post-emergence herbicidal activity index ([10]; 4 WAT, 5.6 kg/h): 2 (50-74% control)
- post-emergence herbicidal activity index ([11]; 5.6 kg/h): 2 (50-74% control)
- post-emergence herbicidal activity index ([11]; 11.2 kg/h): 1 (25-49% control)
- post-emergence herbicidal activity index ([12]; 2 WAT, 0.056 kg/h): 0 (0-24% control)
- post-emergence herbicidal activity index ([12]; 2 WAT, 0.28 kg/h): 0 (0-24% control)
- post-emergence herbicidal activity index ([12]; 2 WAT, 1.12 kg/h): 0 (0-24% control)
- post-emergence herbicidal activity index ([12]; 2 WAT, 5.6 kg/h): 3 (75-99% control)
- post-emergence herbicidal activity index ([12]; 4 WAT, 1.12 kg/h): 0 (0-24% control)
- post-emergence herbicidal activity index ([12]; 4 WAT, 5.6 kg/h): 3 (75-99% control)
- post-emergence herbicidal activity index ([13]; 5.6 kg/h): 2 (50-74% control)
- post-emergence herbicidal activity index ([13]; 11.2 kg/h): 4 (100% control)
- post-emergence herbicidal activity index ([14]; 2 WAT, 0.056 kg/h): 0 (0-24% control)
- post-emergence herbicidal activity index ([14]; 2 WAT, 0.28 kg/h): 1 (25-49% control)
- post-emergence herbicidal activity index ([14]; 2 WAT, 1.12 kg/h): 1 (25-49% control)
- post-emergence herbicidal activity index ([14]; 2 WAT, 5.6 kg/h): 2 (50-74% control)
- post-emergence herbicidal activity index ([14]; 4 WAT, 1.12 kg/h): 2 (50-74% control)
- post-emergence herbicidal activity index ([14]; 4 WAT, 5.6 kg/h): 3 (75-99% control)
- post-emergence herbicidal activity index ([15]; 2 WAT, 0.056 kg/h): 0 (0-24% control)
- post-emergence herbicidal activity index ([15]; 2 WAT, 0.28 kg/h): 0 (0-24% control)
- post-emergence herbicidal activity index ([15]; 2 WAT, 1.12 kg/h): 1 (25-49% control)
- post-emergence herbicidal activity index ([15]; 2 WAT, 5.6 kg/h): 2 (50-74% control)
- post-emergence herbicidal activity index ([15]; 4 WAT, 1.12 kg/h): 1 (25-49% control)
- post-emergence herbicidal activity index ([15]; 4 WAT, 5.6 kg/h): 2 (50-74% control)
- post-emergence herbicidal activity index ([16]; 2 WAT, 0.056 kg/h): 0 (0-24% control)
- post-emergence herbicidal activity index ([16]; 2 WAT, 0.28 kg/h): 0 (0-24% control)
- post-emergence herbicidal activity index ([16]; 2 WAT, 1.12 kg/h): 0 (0-24% control)
- post-emergence herbicidal activity index ([16]; 2 WAT, 5.6 kg/h): 1 (25-49% control)
- post-emergence herbicidal activity index ([16]; 4 WAT, 1.12 kg/h): 0 (0-24% control)
- post-emergence herbicidal activity index ([16]; 4 WAT, 5.6 kg/h): 1 (25-49% control)
- post-emergence herbicidal activity index ([17]; Table I, 4 WAT, 5.6 kg/h): 1 (25-49% control)
- post-emergence herbicidal activity index ([17]; Table I, 4 WAT, 11.2 kg/h): 1 (25-49% control)
- post-emergence herbicidal activity index ([17]; Table II, 2 WAT, 0.056 kg/h): 0 (0-24% control)
- post-emergence herbicidal activity index ([17]; Table II, 2 WAT, 0.28 kg/h): 0 (0-24% control)
- post-emergence herbicidal activity index ([17]; Table II, 2 WAT, 1.12 kg/h): 1 (25-49% control)
- post-emergence herbicidal activity index ([17]; Table II, 2 WAT, 5.6 kg/h): 2 (50-74% control)
- post-emergence herbicidal activity index ([17]; Table II, 4 WAT, 1.12 kg/h): 0 (0-24% control)
- post-emergence herbicidal activity index ([17]; Table II, 4 WAT, 5.6 kg/h): 2 (50-74% control)
- post-emergence herbicidal activity index ([18]; 2 WAT, 0.056 kg/h): 0 (0-24% control)
- post-emergence herbicidal activity index ([18]; 2 WAT, 0.28 kg/h): 1 (25-49% control)
- post-emergence herbicidal activity index ([18]; 2 WAT, 1.12 kg/h): 1 (25-49% control)
- post-emergence herbicidal activity index ([18]; 2 WAT, 5.6 kg/h): 2 (50-74% control)
- post-emergence herbicidal activity index ([18]; 4 WAT, 1.12 kg/h): 0 (0-24% control)
- post-emergence herbicidal activity index ([18]; 4 WAT, 5.6 kg/h): 3 (75-99% control)
- post-emergence herbicidal activity index ([19]; 2 WAT, 0.056 kg/h): 0 (0-24% control)
- post-emergence herbicidal activity index ([19]; 2 WAT, 0.28 kg/h): 1 (25-49% control)
- post-emergence herbicidal activity index ([19]; 2 WAT, 1.12 kg/h): 0 (0-24% control)
- post-emergence herbicidal activity index ([19]; 2 WAT, 5.6 kg/h): 2 (50-74% control)
- post-emergence herbicidal activity index ([19]; 4 WAT, 1.12 kg/h): 0 (0-24% control)
- post-emergence herbicidal activity index ([19]; 4 WAT, 5.6 kg/h): 3 (75-99% control)
- post-emergence herbicidal activity index ([20]; 5.6 kg/h): 2 (50-74% control)
- post-emergence herbicidal activity index ([20]; 11.2 kg/h): 2 (50-74% control)
